Here are results for one molecule from patent US11712433B2, “Compositions comprising PKM2 modulators and methods of treatment using the same” (priority 2019, dated 2023).

One data set relates to A549 lung cancer cells. The data set can be described thus: A549 xenograft, traditional versus serine- and glycine-depleted diet (Example 4). Format: in vivo, athymic nude mice. The settings on record: 100 mpk oral gavage qd x 21. An excerpt:
The traditional diet control was the Baker Amino Acid diet (catalog #5CC7, Test Diet) and the depleted diet was a modified Baker Amino Acid diet which compensated for serine and glycine depletion with increases in all remaining amino acids (catalog #5BJX, Test Diet).

The test system of a further data set is MC38 tumors. The data set can be described thus: Metabolite levels in treated versus vehicle-treated MC38 tumors. Format: in vivo, mice. To be noted: treated compared to vehicle-treated MC38 tumors. An excerpt: Potential downstream biomarkers, including metabolism, immune gene alterations and immune phenotyping are currently under evaluation using LC-MS/MS, NanoString and flow cytometry.

Another data set has as its system A549 cells. Kind of data set: GSH-Glo glutathione levels in A549 cells (Example 10). Format: cell-based. The settings on record: concentration of 10, 24 hours, relative to DMSO. Here is the method: A549 cells were prepared according to Example 3 above. […] Cells were treated for 24 hours, and then glutathione levels were determined using a GSH-Glo assay kit and procedure from Promega (catalog #V6912).

In the case of `Nc1cccc(F)c1CN(CCC1CCS(=O)(=O)CC1)C(=O)c1cc(C(F)(F)F)n[nH]1` [compound of Structure (I)], the body weight entry in the data set with A549 lung cancer cells is listed as “no significant body weight reduction or fluctuation”. Besides, in the data set on A549 lung cancer cells (serine- and glycine-depleted diet versus traditional diet), the tumor volume entry is “best reduction of tumor volume”. For the same molecule, in the data set on MC38 tumors, the “levels of glucose 6-phosphate in tumors” value is “decreased”, the “levels of glucose in tumors” value was “Increased”, the “levels of lactate in tumors” value is recorded as “decreased” and the “levels of phosphoenolpyruvate in tumors” value was “decreased”. In addition, the “levels of phosphoglycerate in tumors” value in the data set on MC38 tumors is on record as “decreased”. Further, the glutathione levels result in the data set with A549 cells is on record as “decreased levels of glutathione”.
